# Test system: MV-4-11 cells
# Test: Gene expression microarray analysis (Affymetrix PrimeView) and GSEA
# Assay type: cell-based, human
# Set-up: RFU PODN (11730768_x_at) / Fold change /veh PODN (11730768_x_at) / RFU LINC00158 (11744669_a_at) / Fold change /veh LINC00158 (11744669_a_at) / RFU DUSP10 (11751237_a_at) / Fold change /veh DUSP10 (11751237_a_at) / RFU ID3 (11757404_x_at) / Fold change /veh ID3 (11757404_x_at) / RFU PLEKHG5 (11737974_s_at) / Fold change /veh PLEKHG5 (11737974_s_at) / RFU LRRC4B (11730491_at) / Fold change /veh LRRC4B (11730491_at) / RFU GIMAP4 (11747438_a_at) / Fold change /veh GIMAP4 (11747438_a_at) / RFU KRT8 (11758183_x_at) / Fold change /veh KRT8 (11758183_x_at) / RFU CNN1 (11734310_a_at) / Fold change /veh CNN1 (11734310_a_at) / RFU VPS37D (11726825_at) / Fold change /veh VPS37D (11726825_at) / RFU C10orf10 (11716522_x_at) / Fold change /veh C10orf10 (11716522_x_at) / RFU KIR2DL2 /// KIR2DL4 /// KIR2DL5A /// KIR2DL5B /// KIR2DS1 /// KIR2DS2 /// KIR2DS3 /// KIR2DS4 /// KIR3DL3 /// KIR3DL3 /// KIR3DS1 (11738374_at) / Fold change /veh KIR2DL2 /// KIR2DL4 /// KIR2DL5A /// KIR2DL5B /// KIR2DS1 /// KIR2DS2 /// KIR2DS3 /// KIR2DS4 /// KIR3DL3 /// KIR3DL3 /// KIR3DS1 (11738374_at) / RFU C1QL1 (11718748_at) / Fold change /veh C1QL1 (11718748_at) / RFU TMPRSS4 (11747572_a_at) / Fold change /veh TMPRSS4 (11747572_a_at) / RFU HAMP (11756126_x_at) / Fold change /veh HAMP (11756126_x_at) / RFU RNFT2 (11725882_a_at) / Fold change /veh RNFT2 (11725882_a_at) / RFU NR4A2 (11747474_a_at) / Fold change /veh NR4A2 (11747474_a_at) / RFU ABCC12 (11746883_a_at) / Fold change /veh ABCC12 (11746883_a_at) / RFU TMEM136 (11760407_x_at) / Fold change /veh TMEM136 (11760407_x_at) / RFU CLDN22 /// WWC2 (11732394_at) / Fold change /veh CLDN22 /// WWC2 (11732394_at) / RFU HLA-DPB1 (11760878_x_at) / Fold change /veh HLA-DPB1 (11760878_x_at) / RFU SPINT1 (11716480_a_at) / Fold change /veh SPINT1 (11716480_a_at) / RFU GAP43 (11754022_s_at) / Fold change /veh GAP43 (11754022_s_at) / RFU A4GNT (11735810_at) / Fold change /veh A4GNT (11735810_at) / RFU PRB3 (11715151_x_at) / Fold change /veh PRB3 (11715151_x_at) / RFU TUBB4B (11761932_at) / Fold change /veh TUBB4B (11761932_at) / RFU CAPN14 (11732068_a_at) / Fold change /veh CAPN14 (11732068_a_at) / RFU TMCC2 (11721928_a_at) / Fold change /veh TMCC2 (11721928_a_at) / RFU IRGQ (11745062_a_at) / Fold change /veh IRGQ (11745062_a_at) / RFU FAM174B (11720279_a_at) / Fold change /veh FAM174B (11720279_a_at) / RFU TMPRSS4 (11748680_a_at) / Fold change /veh TMPRSS4 (11748680_a_at) / RFU FAM212B (11763350_a_at) / Fold change /veh FAM212B (11763350_a_at) / RFU PLEKHG5 (11743358_a_at) / Fold change /veh PLEKHG5 (11743358_a_at) / RFU ZSCAN30 (11745921_a_at) / Fold change /veh ZSCAN30 (11745921_a_at) / RFU CMKLR1 (11741424_a_at) / Fold change /veh CMKLR1 (11741424_a_at) / RFU LOC101060620 /// MAPK8IP1 (11723275_at) / Fold change /veh LOC101060620 /// MAPK8IP1 (11723275_at) / RFU SPTSSB (11747773_x_at) / Fold change /veh SPTSSB (11747773_x_at) / RFU PRSS12 (11739890_at) / Fold change /veh PRSS12 (11739890_at) / RFU BIN1 (11741810_x_at) / Fold change /veh BIN1 (11741810_x_at) / RFU WNT11 (11732464_a_at) / Fold change /veh WNT11 (11732464_a_at) / RFU C10orf10 (11716521_a_at) / Fold change /veh C10orf10 (11716521_a_at) / RFU C5orf56 (11738089_at) / Fold change /veh C5orf56 (11738089_at) / RFU CYB561 (11721691_x_at) / Fold change /veh CYB561 (11721691_x_at) / RFU ANKRD19P (11752326_a_at) / Fold change /veh ANKRD19P (11752326_a_at) / RFU OR2T12 /// OR2T33 /// OR2T8 (11738714_s_at) / Fold change /veh OR2T12 /// OR2T33 /// OR2T8 (11738714_s_at) / RFU VCAN (11748164_a_at) / Fold change /veh VCAN (11748164_a_at) / RFU JSRP1 (11732532_at) / Fold change /veh JSRP1 (11732532_at) / RFU KRTAP10-11 (11738290_x_at) / Fold change /veh KRTAP10-11 (11738290_x_at) / RFU MYO3A (11730013_a_at) / Fold change /veh MYO3A (11730013_a_at) / RFU EBF3 (11725865_a_at) / Fold change /veh EBF3 (11725865_a_at) / RFU CAMK2N1 (11719241_x_at) / Fold change /veh CAMK2N1 (11719241_x_at) / RFU C5orf56 (11738088_a_at) / Fold change /veh C5orf56 (11738088_a_at) / RFU OLFML3 (11715873_a_at) / Fold change /veh OLFML3 (11715873_a_at) / RFU LOC100653217 /// NTM (11731650_a_at) / Fold change /veh LOC100653217 /// NTM (11731650_a_at) / RFU MAPK11 (11762145_a_at) / Fold change /veh MAPK11 (11762145_a_at) / RFU FIZ1 (11724087_x_at) / Fold change /veh FIZ1 (11724087_x_at) / RFU OASL (11726364_x_at) / Fold change /veh OASL (11726364_x_at) / RFU SOX15 (11748057_x_at) / Fold change /veh SOX15 (11748057_x_at) / RFU CD79A (11719716_a_at) / Fold change /veh CD79A (11719716_a_at) / RFU HIST1H1D (11736915_at) / Fold change /veh HIST1H1D (11736915_at) / RFU CASKIN2 (11723855_a_at) / Fold change /veh CASKIN2 (11723855_a_at) / RFU LOC730098 (11760151_x_at) / Fold change /veh LOC730098 (11760151_x_at) / RFU OR4N2 (11742367_at) / Fold change /veh OR4N2 (11742367_at) / RFU PRRT2 (11749266_a_at) / Fold change /veh PRRT2 (11749266_a_at) / RFU SNX32 (11753110_a_at) / Fold change /veh SNX32 (11753110_a_at) / RFU CDHR5 (11726645_a_at) / Fold change /veh CDHR5 (11726645_a_at) / RFU RCAN1 (11760418_a_at) / Fold change /veh RCAN1 (11760418_a_at) / RFU FAM167A (11723789_a_at) / Fold change /veh FAM167A (11723789_a_at) / RFU FAM26E (11764081_at) / Fold change /veh FAM26E (11764081_at) / RFU ISYNA1 (11749810_s_at) / Fold change /veh ISYNA1 (11749810_s_at) / RFU ACY1 (11761880_at) / Fold change /veh ACY1 (11761880_at) / RFU 11764098_at / Fold change /veh 11764098_at / RFU SAMD14 (11745864_x_at) / Fold change /veh SAMD14 (11745864_x_at) / RFU NPB (11741838_a_at) / Fold change /veh NPB (11741838_a_at) / RFU TMPRSS6 (11731388_a_at) / Fold change /veh TMPRSS6 (11731388_a_at) / RFU KRTAP10-2 (11738614_at) / Fold change /veh KRTAP10-2 (11738614_at) / RFU ARHGAP8 /// PRR5-ARHGAP8 (11727945_x_at) / Fold change /veh ARHGAP8 /// PRR5-ARHGAP8 (11727945_x_at) / RFU KRTAP5-7 /// NADSYN1 (11734609_at) / Fold change /veh KRTAP5-7 /// NADSYN1 (11734609_at) / RFU RASL12 (11751679_a_at) / Fold change /veh RASL12 (11751679_a_at) / RFU CDKN2B (11736163_a_at) / Fold change /veh CDKN2B (11736163_a_at) / RFU PRF1 (11729649_at) / Fold change /veh PRF1 (11729649_at) / RFU, ZNF638 /// ZNF638-IT1 / Fold change vs veh, ZNF638 /// ZNF638-IT1 / RFU, PANK3 / Fold change vs veh, PANK3 / RFU, SH3YL1 / Fold change vs veh, SH3YL1 / RFU, ZEB2 / Fold change vs veh, ZEB2 / RFU, NRIP1 / Fold change vs veh, NRIP1 / RFU, PTTG1IP / Fold change vs veh, PTTG1IP / RFU, CAPN2 / Fold change vs veh, CAPN2 / RFU, MED14 / Fold change vs veh, MED14 / RFU, SNORA58 / Fold change vs veh, SNORA58 / RFU, C1orf63 / Fold change vs veh, C1orf63 / RFU, LRRFIP1 / Fold change vs veh, LRRFIP1 / RFU, NDUFAF7 / Fold change vs veh, NDUFAF7 / RFU, SLC12A2 / Fold change vs veh, SLC12A2 / RFU, IBTK / Fold change vs veh, IBTK / RFU, ESF1 / Fold change vs veh, ESF1 / Fold change vs veh, TMEM50B / RFU, TAOK1 / Fold change vs veh, TAOK1 / RFU, ACBD3 / Fold change vs veh, ACBD3 / RFU, TMA16 / Fold change vs veh, TMA16 / RFU, RWDD3 / Fold change vs veh, RWDD3 / RFU, BCAT1 / Fold change vs veh, BCAT1 / RFU, EDEM3 / Fold change vs veh, EDEM3 / RFU, TMEM33 / Fold change vs veh, TMEM33 / RFU, WDR75 / Fold change vs veh, WDR75 / RFU, AHCTF1 / Fold change vs veh, AHCTF1 / RFU, TFRC / Fold change vs veh, TFRC / RFU, ZDHHC17 / Fold change vs veh, ZDHHC17 / RFU, NOM1 / Fold change vs veh, NOM1 / RFU, ARL8B / Fold change vs veh, ARL8B / RFU, ZBTB11 / Fold change vs veh, ZBTB11 / RFU, TAMM41 / Fold change vs veh, TAMM41 / RFU, KIAA1704 /// LOC100996395 / Fold change vs veh, KIAA1704 /// LOC100996395 / RFU, ING1 / Fold change vs veh, ING1 / RFU, TRMT61B / Fold change vs veh, TRMT61B / RFU, FUBP3 / Fold change vs veh, FUBP3 / RFU, TP53 / Fold change vs veh, TP53 / RFU, TNKS2 / Fold change vs veh, TNKS2 / RFU, ZFP14 / Fold change vs veh, ZFP14 / RFU, ACTR2 / Fold change vs veh, ACTR2 / RFU, PPP3R1 / Fold change vs veh, PPP3R1 / RFU, PIK3R1 / Fold change vs veh, PIK3R1 / RFU, HNRNPA1 / Fold change vs veh, HNRNPA1 / RFU, RNF170 / Fold change vs veh, RNF170 / RFU, ZNF28 / Fold change vs veh, ZNF28 / RFU, RNGTT / Fold change vs veh, RNGTT / RFU, OGT / Fold change vs veh, OGT / RFU, BRD1 / Fold change vs veh, BRD1 / RFU, MARS / Fold change vs veh, MARS / RFU, ZNF655 / Fold change vs veh, ZNF655 / RFU, FAHD1 / Fold change vs veh, FAHD1 / RFU, BDP1 / Fold change vs veh, BDP1 / RFU, LRRCC1 / Fold change vs veh, LRRCC1 / RFU, ARID1A / Fold change vs veh, ARID1A / RFU, ZNF146 / Fold change vs veh, ZNF146 / RFU, ZNF330 / Fold change vs veh, ZNF330 / RFU, GPN3 / Fold change vs veh, GPN3 / RFU, C9orf123 / Fold change vs veh, C9orf123 / RFU, N4BP2L2 / Fold change vs veh, N4BP2L2 / RFU, ARFIP1 / Fold change vs veh, ARFIP1 / RFU, FAM179B / Fold change vs veh, FAM179B / RFU, BCL10 / Fold change vs veh, BCL10 / RFU, UHRF1BP1L / Fold change vs veh, UHRF1BP1L / RFU, BET1 / Fold change vs veh, BET1 / RFU, CNOT2 / Fold change vs veh, CNOT2 / RFU, ZNF268 / Fold change vs veh, ZNF268 / Fold change vs veh, ZNF507 / RFU, DGCR2 / Fold change vs veh, DGCR2 / RFU, WDSUB1 / Fold change vs veh, WDSUB1 / Fold change vs veh, HSP90B1 /// MIR3652 / RFU, ADSS / Fold change vs veh, ADSS / RFU, GK / Fold change vs veh, GK / RFU, ZNF148 / Fold change vs veh, ZNF148 / RFU, TAF9 / Fold change vs veh, TAF9 / RFU, SLC1A5 / Fold change vs veh, SLC1A5 / RFU, SLMO2 / Fold change vs veh, SLMO2 / RFU, ABCC4 / Fold change vs veh, ABCC4 / RFU, LOC101060439 /// RAP1B / Fold change vs veh, LOC101060439 /// RAP1B / RFU, RFX7 / Fold change vs veh, RFX7 / RFU, GTPBP10 / Fold change vs veh, GTPBP10 / RFU, CNEP1R1 / Fold change vs veh, CNEP1R1 / RFU, BIVM-ERCC5 /// ERCC5 / Fold change vs veh, BIVM-ERCC5 /// ERCC5 / RFU, ILF3 / Fold change vs veh, ILF3 / RFU 11762660_at / Fold change /veh 11762660_at / RFU VCAN (11757783_s_at) / Fold change /veh VCAN (11757783_s_at) / RFU DDX43 (11728927_at) / Fold change /veh DDX43 (11728927_at) / RFU KRT8 (11758188_x_at) / Fold change /veh KRT8 (11758188_x_at) / RFU NKD1 (11759106_at) / Fold change /veh NKD1 (11759106_at) / RFU SRD5A1 (11742802_a_at) / Fold change /veh SRD5A1 (11742802_a_at) / RFU TPSAB1 /// TPSB2 (11721975_s_at) / Fold change /veh TPSAB1 /// TPSB2 (11721975_s_at) / RFU GSTM3 (11746129_a_at) / Fold change /veh GSTM3 (11746129_a_at) / RFU IL23R (11737362_x_at) / Fold change /veh IL23R (11737362_x_at) / RFU TMEM51 (11727254_a_at) / Fold change /veh TMEM51 (11727254_a_at) / RFU PIWIL2 (11732686_x_at) / Fold change /veh PIWIL2 (11732686_x_at) / RFU ORM1 (11744905_x_at) / Fold change /veh ORM1 (11744905_x_at) / RFU CCDC152 (11743942_at) / Fold change /veh CCDC152 (11743942_at) / RFU ECM1 (11717891_a_at) / Fold change /veh ECM1 (11717891_a_at) / RFU IL23R (11748794_a_at) / Fold change /veh IL23R (11748794_a_at) / RFU TNFAIP8L3 (11732012_x_at) / Fold change /veh TNFAIP8L3 (11732012_x_at) / RFU MBOAT4 (11741988_at) / Fold change /veh MBOAT4 (11741988_at) / RFU 11764193_at / Fold change /veh 11764193_at / RFU TMEM53 (11763286_at) / Fold change /veh TMEM53 (11763286_at) / RFU MAGEB2 (11727129_at) / Fold change /veh MAGEB2 (11727129_at) / RFU TMEM200A (11744735_a_at) / Fold change /veh TMEM200A (11744735_a_at) / RFU CCDC152 (11751479_a_at) / Fold change /veh CCDC152 (11751479_a_at) / RFU FAM211A (11726209_a_at) / Fold change /veh FAM211A (11726209_a_at) / RFU RGS16 (11746705_a_at) / Fold change /veh RGS16 (11746705_a_at) / RFU VCAN (11755009_s_at) / Fold change /veh VCAN (11755009_s_at) / RFU RHOB (11743442_s_at) / Fold change /veh RHOB (11743442_s_at) / RFU RGS16 (11720943_a_at) / Fold change /veh RGS16 (11720943_a_at) / RFU RGS16 (11720944_at) / Fold change /veh RGS16 (11720944_at) / RFU, VPS4B / Fold change vs veh, VPS4B / RFU, CREB1 / Fold change vs veh, CREB1 / RFU, DNAJC13 / Fold change vs veh, DNAJC13 / RFU, GNAQ / Fold change vs veh, GNAQ / RFU, CDK5R1 / Fold change vs veh, CDK5R1 / RFU, ZRANB3 / Fold change vs veh, ZRANB3 / RFU, CUL4A / Fold change vs veh, CUL4A / RFU, CCNY / Fold change vs veh, CCNY / RFU, UFL1 / Fold change vs veh, UFL1 / RFU, COG3 / Fold change vs veh, COG3 / RFU, DIAPH2 / Fold change vs veh, DIAPH2 / RFU, SKA2 / Fold change vs veh, SKA2 / RFU, AFF3 / Fold change vs veh, AFF3 / RFU, LMF1 / Fold change vs veh, LMF1 / RFU, IPO11 / Fold change vs veh, IPO11 / RFU, DFFB / Fold change vs veh, DFFB / RFU, FOXP1 / Fold change vs veh, FOXP1 / RFU, CARD8 / Fold change vs veh, CARD8 / RFU, STRN3 / Fold change vs veh, STRN3 / RFU, ADK / Fold change vs veh, ADK / RFU, RASSF2 / Fold change vs veh, RASSF2 / RFU, WIPF1 / Fold change vs veh, WIPF1 / RFU, LARP1B / Fold change vs veh, LARP1B / RFU, RASA1 / Fold change vs veh, RASA1 / RFU, RB1 / Fold change vs veh, RB1 / RFU, PPFIA1 / Fold change vs veh, PPFIA1 / RFU, MAT2A / Fold change vs veh, MAT2A / RFU, CCT5 / Fold change vs veh, CCT5 / RFU, WDR92 / Fold change vs veh, WDR92 / RFU, CUX1 / Fold change vs veh, CUX1 / RFU, TTC7A / Fold change vs veh, TTC7A / RFU, TMEM135 / Fold change vs veh, TMEM135 / RFU, DEPTOR / Fold change vs veh, DEPTOR / RFU, CPM / Fold change vs veh, CPM / RFU, DNAJB6 / Fold change vs veh, DNAJB6 / RFU, CACNA2D3 / Fold change vs veh, CACNA2D3 / RFU, DTX4 / Fold change vs veh, DTX4 / RFU, TFCP2 / Fold change vs veh, TFCP2 / RFU, GMCL1 /// GMCL1P1 / Fold change vs veh, GMCL1 /// GMCL1P1 / RFU, AEBP2 / Fold change vs veh, AEBP2 / RFU, SNHG1 /// SNORD22 /// SNORD25 /// SNORD26 /// SNORD27 /// SNORD28 /// SNORD29 /// SNORD31 / Fold change vs veh, SNHG1 /// SNORD22 /// SNORD25 /// SNORD26 /// SNORD27 /// SNORD28 /// SNORD29 /// SNORD31 / Fold change (Aza/veh), C12orf56 (ProbeSet 11735607_a_at) / Fold change (ACY-1035/veh), C12orf56 (ProbeSet 11735607_a_at) / Fold change (Aza/veh), FGFR1OP (ProbeSet 11751329_s_at) / Fold change (ACY-1035/veh), FGFR1OP (ProbeSet 11751329_s_at) / Fold change (Aza/veh), VPS36 (ProbeSet 11739960_a_at) / Fold change (ACY-1035/veh), VPS36 (ProbeSet 11739960_a_at) / RFU SYPL1 (11715823_x_at) / Fold change /veh SYPL1 (11715823_x_at) / RFU IGFBP7 (11715501_s_at) / Fold change /veh IGFBP7 (11715501_s_at) / RFU REEP3 (11722064_at) / Fold change /veh REEP3 (11722064_at) / RFU IGLL1 (11728026_x_at) / Fold change /veh IGLL1 (11728026_x_at): dose or concentration left out as unconfirmed
# Details: MV-4-11 cells, 48 hours
smiles,measurement,value
Nc1ncn([C@@H]2O[C@H](CO)[C@@H](O)[C@H]2O)c(=O)n1 [azacitidine],RFU FAM26E (11764081_at),5.32 RFU

# — paper PMC5218480 (PLoS ONE, 2017)
